# Measurements published in US20230310636A1, “COMBINATION THERAPIES FOR TREATMENT OF CANCER WITH THERAPEUTIC BINDING MOLECULES” (MedImmune Limited, priority 2022, published 2023).
# How the values were obtained:
# [1] = preclinical models; cited from earlier work
# [2] = test system: MDA-MB-468 breast cancer xenografts; test: MDA-MB-468 breast cancer xenograft, ADC with AZD5305; assay type: in vivo, mice; conditions: AZD5305 individually, 0.1 mg/kg and 1 mg/kg, once daily oral, 28 days; FIG. 7
# Procedure: MDA-MB-468 cells were injected 5×10^6 per mouse into the mammary fat pad of female CB-17 SCID mice. […] Tumor and body weight measurements were recorded twice weekly for the duration of the study.
# All animal experiments were conducted in a facility accredited by the Association for Assessment and Accreditation of Laboratory Animal Care under the guidelines of AstraZeneca's Institutional Animal Care and Use Committee and appropriate animal research approvals. Cell line xenograft models were established through subcutaneous implantation of cells in 50% Matrigel (Corning, Corning, NY, USA) in either the right mammary fat pad (MX-1, MDA-MB-468) or left flank (HT29, HT29-huB7-H4) of female CB-17 mice (Envigo, Frederick, MD, USA). When tumor volume reached 150-200 mm^3, mice were randomized and given a single intravenous (IV) injection of vehicle control (20 mM histidine, pH 6; 240 mM sucrose; 0.02% PS-80) or ADCs. Body weight and tumor measurements were determined once or twice weekly, and tumor volume was calculated with the formula
compound,measurement,setting,value
"CCc1cc2ncc(CN3CCN(c4ccc(C(=O)NC)nc4)CC3)cc2[nH]c1=O [AZD5305, 5-[4-[(7-ethyl-6-oxo-5H-1,5-naphthyridin-3-yl)methyl]piperazin-1-yl]-N-methyl-pyridine-2-carboxamide]",hematological toxicity in comparison with non-selective PARPi,[1],reduced hematological toxicity
same,anti-tumor activity in vivo (tumor size over time),[2],little to no anti-tumor activity
